# Measurements reported in ChEMBL document CHEMBL1138833, “Enantioselective synthesis and biological activity of (3S,4R)- and (3S,4S)-3-hydroxy-4-hydroxymethyl- 4-butanolides in relation to PGE2” (J Med Chem, 2004).
# How the values were obtained:
# [1] = target: Prostaglandin E2 receptor EP2 subtype (Homo sapiens) (UniProt P43116); test: The percentage decrease in the binding of [3H]PGE2, in the presence of 125 uM of compound
# [2] = target: Prostaglandin E2 receptor EP2 subtype (Homo sapiens) (UniProt P43116); test: The percentage decrease in the binding of [3H]PGE2, in the presence of 1000 uM of compound
# Sequence of Prostaglandin E2 receptor EP2 subtype (Homo sapiens) (P43116 whole entry): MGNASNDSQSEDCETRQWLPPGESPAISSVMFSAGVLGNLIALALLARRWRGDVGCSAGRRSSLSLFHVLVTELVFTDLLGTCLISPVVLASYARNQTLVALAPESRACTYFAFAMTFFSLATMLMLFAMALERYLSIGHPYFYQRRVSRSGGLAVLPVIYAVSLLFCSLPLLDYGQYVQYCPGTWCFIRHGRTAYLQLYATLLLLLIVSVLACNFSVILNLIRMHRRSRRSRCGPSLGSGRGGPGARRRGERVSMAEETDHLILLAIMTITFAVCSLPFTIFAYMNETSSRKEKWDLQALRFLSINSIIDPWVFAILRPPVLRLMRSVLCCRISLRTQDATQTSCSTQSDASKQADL
Decrease [1],Decrease [2],SMILES
78%,33%,O=C1C[C@H](O)[C@@H](CO)O1
,73%,O=C1C[C@H](O)[C@H](CO)O1
